Earlier results as cited in patent publication US20130030007A1, “Obesity Small Molecules” (AKRON MOLECULES GMBH, priority 2010, published 2013).
Where two headings read alike, the source gives them in different places. Starred links: 1 amine or outer side, 2 acyl side, 3 side chain; linkers in the order of their positions; H or OH if unused. Positions of bridges follow the written chain, without caps; N, C: chain ends. Non-standard residues stand in square brackets, D forms with d. Residues, ends and D or L forms follow the SMILES beside them. Adda = CO[C@@H](Cc1ccccc1)[C@@H](C)/C=C(C)/C=C/[C@H](N[*:1])[C@H](C)C(=O)[*:2]; dAsp(3S-Me) = C[C@H](C(=O)[*:3])[C@@H](N[*:1])C(=O)[*:2]; d(γGlu) = O=C(O)[C@@H](CCC(=O)[*:2])N[*:1]; NMeDha = C=C(NC)C(=O)O

Test system: human ortholog of Drosophila obesity gene
Parameters: key: O: Obesity - obesity pathway interaction; B: validated binding partner
Settings: cited from earlier work
[1] = interaction of the small molecule with the human ortholog(s) / Drosophila gene(s) listed in the same table line

Structure (SMILES) | Type: Type of interaction | Type: Type of interaction [1]
CCCCCCCNS(=O)(=O)c1cccc2c(Cl)cccc12 | B | 
COc1ccc(C2=N[C@@H](c3ccc(Cl)cc3)[C@@H](c3ccc(Cl)cc3)N2C(=O)N2CCNC(=O)C2)c(OC(C)C)c1 (racemic) [nutlin 3] | O | 
Nc1nc2[nH]cc(CCc3ccc(C(=O)N[C@@H](CCC(=O)O)C(=O)O)cc3)c2c(=O)[nH]1 [LY231514] | O | 
C=C1C(=O)N[C@H](C)C(=O)N[C@@H](CC(C)C)C(=O)N[C@@H](C(=O)O)[C@H](C)C(=O)N[C@@H](CCCNC(=N)N)C(=O)N[C@@H](/C=C/C(C)=C/[C@H](C)[C@H](Cc2ccccc2)OC)[C@H](C)C(=O)N[C@@H](C(=O)O)CCC(=O)N1C [MCYST-LR] (R[Adda][d(γGlu)][NMeDha][dA]L[dAsp(3S-Me)]-OH; lactam N-7) | O | 
CS(=O)(=O)c1cc(F)cc2c3c(n(Cc4ccc(Cl)cc4)c12)[C@@H](CC(=O)O)CC3 [MK-0524] | B | 
O=c1c(O)c(-c2ccc(O)cc2O)oc2cc(O)cc(O)c12 [MORIN] |  | O
COc1ccc(Cl)cc1C(=O)NCCc1ccc(S(=O)(=O)NC(=O)NC2CCCCC2)cc1 [Malix] |  | B
CSC[C@H]1O[C@@H](n2cnc3c(N)ncnc32)[C@H](O)[C@@H]1O [MeSAdo] | B | 
CCCC(C)C1(CC)C(=O)NC(=O)NC1=O (stereo not drawn) [Mebumal] | O | 
CCC(=O)O[C@@H]1CC(=O)O[C@H](C)C/C=C/C=C/[C@H](O)[C@H](C)C[C@H](CC=O)[C@H](O[C@@H]2O[C@H](C)[C@@H](O[C@H]3C[C@@](C)(O)[C@@H](OC(=O)CC)[C@H](C)O3)[C@H](N(C)C)[C@H]2O)[C@H]1OC [Medemycin] |  | O
CC(=O)O[C@]1(C(C)=O)CC[C@H]2[C@@H]3C[C@H](C)C4=CC(=O)CC[C@]4(C)[C@H]3CC[C@@]21C [Medroxyprogesterone 17-Acetate] | B | 
COc1ccc2[nH]cc(CCNC(C)=O)c2c1 [Melatol] |  | B
CC12CC3CC(C)(C1)CC(N)(C3)C2 [Memantine] |  | B
CC(C)=CCC/C(C)=C/CC/C(C)=C/CC/C(C)=C/CC1=C(C)C(=O)c2ccccc2C1=O [Menatetrenone] |  | O
CCC1(c2ccccc2)NC(=O)N(C)C1=O (stereo not drawn) [Mephenytoin] |  | B
CCCC(C)(COC(N)=O)COC(N)=O [Meprobamate] | O | 
CNC[C@H](O)c1cccc(O)c1 [Mesaton] | B | 
CN[C@@H](C)Cc1ccccc1 [Meth] | O | 
COc1ccc2c(c1)C13CCCCC1C(C2)N(C)CC3 (stereo not drawn) [Methorphan] | O | 
COc1c2occc2cc2ccc(=O)oc12 [Methoxsalen] |  | B
CSc1ncnc2c1ncn2[C@@H]1O[C@H](CO)[C@@H](O)[C@H]1O [Methylthioinosine] | B | 
CC(C)(C(=O)c1cccnc1)c1cccnc1 [Metopiron] |  | O
C[C@]1(O)CC[C@H]2[C@@H]3CCC4=CC(=O)CCC4=C3C=C[C@@]21C [Metribolone] | B | 
c1cncnc1 [Miazine] | B | 
CCCOC(C(=O)OC1CCN(C)CC1)(c1ccccc1)c1ccccc1 [Mictonorm] | B | 
Cc1ncc2n1-c1ccc(Cl)cc1C(c1ccccc1F)=NC2 [Midazolam] | O | 
CC#C[C@]1(O)CC[C@H]2[C@@H]3CCC4=CC(=O)CCC4=C3[C@@H](c3ccc(N(C)C)cc3)C[C@@]21C [Mifepristone] |  | B
NC(Cn1ccc(=O)c(O)c1)C(=O)O (stereo not drawn) [Mimosine] |  | O
O=C1c2c(O)ccc(O)c2C(=O)c2c(NCCNCCO)ccc(NCCNCCO)c21 [Mitoxantrone] |  | O
CCOC(=O)[N-]c1cn(N2CCOCC2)n[o+]1 [Molsidomine] |  | B
